These results are taken from ChEMBL document CHEMBL4229496, “Discovery of small molecule inhibitors of adenovirus by disrupting E3-19K/HLA-A2 interactions” (Bioorg Med Chem Lett, 2018).

Each structure is given as a SMILES string. Where a name gives a salt, the structure may show the parent alone.

For this assay, the target named is HLA class I histocompatibility antigen, A alpha chain (Homo sapiens, UniProt P04439, D140Y/D185E/D98H/E176V/E277Q/G131W/G231S/I119V/I121R/I166T/I218V/L300P/L318F/N151K/N90K/P208A/P217A/Q86G/Q94H/R138H/R169H/T345S). Put plainly: Binding affinity to human biotinylated HLA-A2 by surface plasmon resonance assay. (SPR reads the build-up and loss of mass on a sensor chip optically.)

By Kd is commonly meant the concentration at which binding is half-saturated. Read a high Kd as a looser complex. `O=C(c1ccc(OCCN2CCCCC2)cc1)c1c(-c2ccc(O)cc2)sc2cc(O)ccc12` [RALOXIFENE HYDROCHLORIDE] registered a dissociation constant Kd of 22 µM.
`COc1cc2nc(N3CCN(C(=O)C4COc5ccccc5O4)CC3)nc(N)c2cc1OC` (stereo unspecified) [DOXAZOSIN MESYLATE] registered a Kd of 15.7 µM.
Then `O=c1n(CCCN2CCN(c3cccc(Cl)c3)CC2)nc2ccccn12` [TRAZODONE HYDROCHLORIDE], with 2.5 µM; and `COc1ccc(CCN2CCC(Nc3nc4ccccc4n3Cc3ccc(F)cc3)CC2)cc1` [ASTEMIZOLE], with 2.5 to 75 µM.
Then `O=C(CCCN1CCC(O)(c2ccc(Cl)cc2)CC1)c1ccc(F)cc1` [HALOPERIDOL], with less than 10 µM; and `O=C(CCCN1CCC2(CC1)C(=O)NCN2c1ccccc1)c1ccc(F)cc1` [SPIPERONE], with 2.5 to 75 µM.
